# Assay results published in the METLIN SMRT retention time set (Domingo-Almenara et al. 2019).
# Test: gradient 5% acetonitrile 3 min, to 50% in 2 min, to 85% in 15 min, held 3 min, 100 µL/min
# Details: column: Zorbax Extend-C18 2.1 x 50 mm; eluents: water / acetonitrile, 0.1% formic acid
# Summary of the method: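 Over 3 months, pure standards in mixtures of ~100 molecules were run by HPLC coupled to a quadrupole time-of-flight mass spectrometer in positive and negative ionization mode. The column was a Zorbax Extend-C18 (2.1 × 50 mm, 1.8 μm) at 100 μL/min, eluted with water and acetonitrile each holding 0.1% formic acid, with 40 μL dead and 900 μL dwell volumes. Retention time was determined from adduct peaks chosen by software and checked manually.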
row,Structure (SMILES),RP-LC retention time
1,O=C(NC1CC1)c1snc(-c2ccccn2)c1NC(=O)C1CC1,720 s
2,Cc1ccc(-c2noc(C3CCCN3C(=O)c3cncc(Br)c3)n2)cc1 (centres undefined),961 s
3,O=C(NCC1(CO)CC1)NC(c1ccccc1)c1ccccc1,706 s
4,COc1ccc(NC(=O)c2cccc(N3CCNC(c4ccccc4)C3)n2)cc1 (centres undefined),665 s
5,N#Cc1ccc(C(=O)N2CCOc3ccccc32)cc1,864 s
6,CN(Cc1ccccc1)C(=O)c1ccc2c(c1)CCCN2S(C)(=O)=O,841 s
7,CCn1ccc2c(cc(C(=O)Nc3ccc(Br)c(C)c3)n2C)c1=O,895 s
8,CCn1c(=O)n(CC(=O)NCCN2CCCCC2C)c(=O)c2cnc(-c3ccc(Cl)cc3)nc21 (centres undefined),751 s
9,C=CCN(CC=C)S(=O)(=O)c1ccc(C(=O)N2CCc3ccccc3C2)cc1,940 s
10,COc1ccc(NC(=O)Cn2nc3nc(N4CCOCC4)ccn3c2=O)cc1F,602 s
11,CC(=O)Nc1ccc(-n2cnc(C(=O)NCc3ccccc3F)c2)nc1,663 s
12,COc1ccc(-n2c(=O)c3sccc3n(Cc3nc(-c4cccc(OC)c4)no3)c2=O)cc1,949 s
13,CCN(C(=O)C1CCCN1S(=O)(=O)c1cc2c(cc1C)NC(=O)CO2)c1cccc(C)c1 (centres undefined),818 s
14,CCOC(=O)c1c(C)[nH]c(C)c1S(=O)(=O)N1CCC(C(=O)Nc2ccc(C)c(N(C)C)c2)CC1,616 s
15,O=C(CCOc1ccccc1)NCc1ccccc1,759 s
16,Nc1nc(SCC(=O)c2ccc3c(c2)OCCO3)n[nH]1,574 s
17,CSc1ccccc1NC(=O)Cn1cnc(-c2cccs2)cc1=O,749 s
18,O=C1CCN(CC2CCCCC2)CCCC(c2nc(-c3cnccn3)no2)CCN1 (centres undefined),619 s
19,Cc1oc2c(c1C(=O)NC(C)c1ccccc1)C1=NC(C)(C)CN1C=N2 (centres undefined),653 s
20,Cc1ccc(N2CCN(C(=O)C3CCCN(c4ncnc5c4nc4n5CCCCC4)C3)CC2)c(C)c1 (centres undefined),1050 s
21,Cc1cccc(-n2c(=O)c3c(cc(C)n3C)n(CC(=O)Nc3ccc(F)c(Cl)c3)c2=O)c1,940 s

row,Structure (SMILES),RP-LC retention time
1,CNC(=O)c1cc(-c2ccc(F)cc2)n[nH]1,659 s
2,Cc1sc(NC(=O)c2cccs2)nc1-c1ccc2c(c1)NC(=O)CO2,842 s
3,COCCNC(=O)N1CCCC(C)(C(=O)NCc2ccccc2)C1 (centres undefined),639 s
4,COc1cccc(NS(=O)(=O)c2cc3c(s2)CCN(C(=O)C2CC2)C3)c1,801 s
5,Cc1ccccc1CNC(=O)C1(C)CCCN(C(=O)Nc2ccc(Cl)cc2)C1 (centres undefined),995 s
6,CCOC(=O)c1ccccc1NC(=O)NCCn1c(C(F)(F)F)nc2cccnc21,917 s
7,O=C(NCCOc1ccc(F)cc1)C1CN(C(=O)c2cccs2)C1,691 s
8,Cc1ccc(-c2ccc(N3CCCC(C(=O)N4CCC(C(N)=O)CC4)C3)nn2)cc1C (centres undefined),622 s
9,Cc1nc(-c2ccc(N3CCN(C(=O)c4ccsc4)CC3)nc2)sc1C,803 s
10,CC(C)NC(=O)CSc1nnc(CNC(=O)c2ccc(S(=O)(=O)N(C)C)cc2)o1,625 s
11,Cc1n[nH]c(C)c1CNC(=O)C1CCN(C(=O)c2ncn3c2COC(c2ccc(F)cc2)C3)CC1 (centres undefined),627 s
12,CCCCS(=O)(=O)c1cc2c(cc1NC(=O)Cc1cccc(F)c1)n(C)c(=O)n2C,855 s
13,O=C(Nc1ccc2c(c1)OCCO2)c1c(O)c2cccnc2n(-c2ccc(F)cc2)c1=O,1120 s
14,CN(C)c1ccc(-c2nc3cnccn3c2Nc2cccc(C(N)=O)c2)cc1,609 s
15,Cc1nc(CCNC(=O)C2CCC2)no1,608 s
16,Cn1nc(C(=O)N2CCCCC2)c2c1CCN(C(=O)CCC(=O)NC1CCCCCC1)C2,728 s
17,CC(C)c1cccc(NC(=O)Cn2nc3c(N4CCSCC4)nccn3c2=O)c1,930 s
18,CCN1c2cc(F)ccc2C(=O)NC12CCN(C(=O)c1cccc(C)c1)CC2,824 s
19,COC(=O)c1c(N)n(-c2cccc(F)c2)c2nc3ccccc3nc12,685 s
20,CCc1noc(-c2cccn2Cc2ccc(OC)c(F)c2)n1,1100 s
21,CC(C)Oc1ccccc1CN1CC(c2nc(-c3ccncc3)nn2C)C1,590 s

row,Structure (SMILES),RP-LC retention time
1,CCN(CC)C(=O)C1CCCN1S(=O)(=O)c1cc2c(cc1C)NC(=O)C(C)O2 (centres undefined),714 s
2,COc1ccc(NC(=O)Cn2c(=O)c3cc(C)nn3c3ncccc32)c(OC)c1,694 s
3,COc1ccc(NC(=O)Nc2cccc(-c3ccc(N4CCCCC4)nn3)c2)c(OC)c1,719 s
4,Clc1ccc(C(Cn2ccnc2)OCc2csc3c(Cl)cccc23)c(Cl)c1 (centres undefined),974 s
5,CCc1nnc2ccc(-c3noc(-c4cc(F)ccc4F)n3)cn12,896 s
6,O=C(C1CCN(S(=O)(=O)c2cc(-c3noc(C4CC4)n3)cs2)CC1)N1CCCCC1,931 s
7,CCc1ccc(NC(=O)N2CCC3(CC2)NC(=O)c2ccccc2N3C)cc1,808 s
8,O=C(NCc1ccc(F)cc1)N1CCc2nc[nH]c2C1,574 s
9,CC(C)c1ccc(S(=O)(=O)N2CCC(c3ccncc3)CC2)cc1,749 s
10,O=C(NCc1ccc2c(c1)OCO2)C(=O)c1cccn1Cc1ccccc1,980 s
11,CCc1onc(C)c1C1CCCN1C(=O)Nc1ccccc1OC (centres undefined),825 s
12,O=C(Cn1cccc1-c1nnc(C2CC2)o1)N1CCN(c2ccccc2)CC1,821 s
13,CCC(C)NC(=O)c1cnn(-c2ccc(-c3nc(C(C)C)no3)cn2)c1C (centres undefined),1000 s
14,CCOc1cccc(Cn2c(=O)c3sccc3n(Cc3nc(-c4ccccc4C)no3)c2=O)c1,1190 s
15,COc1ccc(C(=O)N2C[C@H](c3nc(-c4ccccc4)no3)[C@@H](C)C2)cc1,984 s
16,COc1ccc(S(=O)(=O)Nc2cccnc2Nc2ccc(O)cc2)cc1,687 s
17,Cc1ccc(NC(=O)C2CCN(S(=O)(=O)c3ccc4c(c3)sc(=O)n4C)CC2)cc1Cl,978 s
18,CC1(C(=O)N2CC(F)(F)C[C@H]2c2nc(-c3ncccn3)no2)CC1,674 s
19,O=C(c1cccc(-n2cnnn2)c1)N1CC(c2nc(-c3ccccn3)no2)C1,648 s

# Next, values leading:
row,RP-LC retention time,Structure (SMILES)
1,755 s,O=C(c1cnccn1)N1CCC(Oc2nc3ccccc3s2)CC1
2,622 s,N#CCSC1=NS(=O)(=O)c2cc(F)ccc2N1
3,637 s,Cc1nc(Nc2ccc(Cl)cn2)sc1C(=O)NCCN1CCCCC1
4,673 s,O=C(c1ccsc1)N1CCCn2cc(-c3ccccc3F)nc21
5,716 s,CCCNC(=O)N1C[C@@H]2C(=O)N(CCc3ccccc3)C(=O)[C@@H]2C1
6,607 s,CCn1c(CN(C)C(=O)Nc2ccc3c(c2)OCO3)nc2cc(C(=O)N(C)C)ccc21
7,1090 s,Cc1ccc(-c2noc(CN3N=NC4C(=O)N(c5ccc(F)c(Cl)c5)C(=O)C43)n2)cc1 (centres undefined)
8,1190 s,COc1ccc(NC(=O)C2CCCN(c3nc4ccccc4nc3C(F)(F)F)C2)c(OC)c1 (centres undefined)
9,1140 s,Cc1ccc(-c2noc(-c3cccc(S(=O)(=O)Nc4ccc5c(c4)OCCO5)c3)n2)cc1
10,874 s,O=S(=O)(c1ccc2nncn2c1)N(Cc1ccccc1F)c1cc(F)cc(F)c1
11,857 s,O=C(NCCc1cccs1)C1CCc2nc(N3CCCC3)ncc2C1 (centres undefined)
12,582 s,CNC(=O)[C@@H]1C[C@H](Oc2cccnc2)CN1C(=O)Cn1c(=O)oc2ccccc21
13,984 s,COc1ccc(-c2noc(-c3cccn3CC(=O)NCc3ccco3)n2)cc1F
14,630 s,Cc1cnc(C(=O)N2CCC(c3noc(-c4cnccn4)n3)C2)cn1 (centres undefined)
15,618 s,CCc1noc(-c2ccc(-n3ncc(C(=O)N4CCN(C)CC4)c3C)nc2)n1
16,1060 s,COC(=O)c1ccccc1NC(=O)c1ccc(F)cc1
17,603 s,CCOC(=O)NCC1CCN(S(C)(=O)=O)CC1
18,711 s,O=C(NCc1ccc2c(c1)OCO2)C(=O)NCC1CCN(S(=O)(=O)C2CC2)CC1
19,650 s,Cc1nn(C)c(C)c1C(C)NC(=O)C1CCN(c2cnn(Cc3ccccc3)c(=O)c2)CC1 (centres undefined)
20,870 s,COC(=O)CNC(=O)N1CCCCCC1c1ccc(Cl)cc1 (centres undefined)
21,641 s,Cc1ccn2cc(-c3ccc(NS(=O)(=O)c4ccc5nc(C)sc5c4)cc3)nc2n1
22,1020 s,COc1cccc(-n2c(N3CCCC(C(=O)NCCC4=CCCCC4)C3)nc3ccsc3c2=O)c1 (centres undefined)
23,1320 s,Cc1nc(-c2cc(S(=O)(=O)N(C)C3CCCCC3)c(C)s2)sc1C
24,585 s,Cc1ccc(-c2cn3cc(C(=O)NC(C)c4cccnc4)ccc3n2)cc1C (centres undefined)
25,927 s,COc1ccc(S(=O)(=O)NCc2ccc3c(c2)CCN3C(=O)c2ccc(F)cc2)cc1
26,729 s,COCCC(=O)Nc1ccc(-c2nc(Cn3nc(C)cc3C)c(C)o2)cc1
27,1140 s,CCn1c(=O)c2ccccc2n(Cc2nc(-c3ccc(Cl)c(F)c3)no2)c1=O
28,1190 s,O=C(NC1CCN(Cc2ccccc2)CC1)c1nnc(-c2ccc(S(=O)(=O)N3CCCC3)cc2)o1
